Key:
Assay type in all cases: cell-based
[1] = Binding affinity to Aplysia californica AchBP M116L mutant expressed in HEK293S cells by scintillation proximity assay
[2] = tested on: HEK293S; assay: Binding affinity to Aplysia californica AchBP Y195F mutant expressed in HEK293S cells assessed as specific photoincorporation at 46 pmol by scintillation counting relative to wild type
[3] = tested on: HEK293S; assay: Binding affinity to Aplysia californica AchBP V108M, M116L mutant expressed in HEK293S cells assessed as specific photoincorporation at 46 pmol by scintillation counting relative to wild type
[4] = tested on: HEK293S; assay: Binding affinity to Aplysia californica AchBP S114M, M116L, Y195F mutant expressed in HEK293S cells assessed as specific photoincorporation at 46 pmol by scintillation counting relative to wild type
[5] = Binding affinity to Aplysia californica AchBP Y195F mutant expressed in HEK293S cells by scintillation proximity assay
[6] = Binding affinity to Aplysia californica AchBP M116L,Y195F mutant expressed in HEK293S cells by scintillation proximity assay
[7] = Binding affinity to Aplysia californica AchBP I106M, M116L, Y195F mutant expressed in HEK293S cells by scintillation proximity assay
[8] = Binding affinity to Aplysia californica AchBP A107M mutant expressed in HEK293S cells by scintillation proximity assay
[9] = Binding affinity to Aplysia californica AchBP V108M, M116L, Y195F mutant expressed in HEK293S cells by scintillation proximity assay
[10] = Binding affinity to Aplysia californica AchBP I118M, M116L mutant expressed in HEK293S cells by scintillation proximity assay
[11] = Binding affinity to Aplysia californica AchBP I118M, M116L, Y195F mutant expressed in HEK293S cells by scintillation proximity assay
[12] = tested on: HEK293S; assay: Binding affinity to wild type Aplysia californica AchBP expressed in HEK293S cells assessed as specific photoincorporation at 46 pmol by scintillation counting
[13] = tested on: HEK293S; assay: Binding affinity to Aplysia californica AchBP Y195F mutant expressed in HEK293S cells assessed as specific photoincorporation at 46 pmol by scintillation counting
[14] = tested on: HEK293S; assay: Binding affinity to Aplysia californica AchBP M116L,Y195F mutant expressed in HEK293S cells assessed as specific photoincorporation at 46 pmol by scintillation counting
[15] = tested on: HEK293S; assay: Binding affinity to Aplysia californica AchBP I106M, M116L, Y195F mutant expressed in HEK293S cells assessed as specific photoincorporation at 46 pmol by scintillation counting
[16] = tested on: HEK293S; assay: Binding affinity to Aplysia californica AchBP A107M, M116L mutant expressed in HEK293S cells assessed as specific photoincorporation at 46 pmol by scintillation counting
[17] = tested on: HEK293S; assay: Binding affinity to Aplysia californica AchBP A107M, M116L, Y195F mutant expressed in HEK293S cells assessed as specific photoincorporation at 46 pmol by scintillation counting
[18] = tested on: HEK293S; assay: Binding affinity to Aplysia californica AchBP V108M, M116L, Y195F mutant expressed in HEK293S cells assessed as specific photoincorporation at 46 pmol by scintillation counting

Structure (SMILES): Clc1ccc(C2CC3CCC2N3)cn1 (racemic) [EPIBATIDINE]
- Kd [1]: 9 nM
- Activity [2]: 3.4%
- Activity [3]: 28%
- Activity [4]: 13%
- Kd [5]: 21 nM
- Kd [6]: 22 nM
- Kd [7]: 29 nM
- Kd [8]: 10 nM
- Kd [9]: 2.9 nM
- Kd [10]: 5 nM
- Kd [11]: 24 nM
- Activity [12]: 29%
- Activity [13]: 1%
- Activity [14]: 2%
- Activity [15]: 3.7%
- Activity [16]: 29%
- Activity [17]: 3.7%
- Activity [18]: 0%

Source: ChEMBL document CHEMBL1136964, “Nicotinic agonist binding site mapped by methionine- and tyrosine-scanning coupled with azidochloropyridinyl photoaffinity labeling” (J Med Chem, 2009)
